Results from PubChem BioAssay AID1963862 (Molecular Pharmacology Branch, DTP, NCI, 2024).
Where “and” joins values, the source holds several entries; their conditions need not be identical. Equal entries are not always repeated. Calls of active or inactive are those of the source. The calls were made as follows: active = viability on the fitted dose curve at most 10% of control; inactive = the rest.

System: KRAS patient-derived spheroids with HUVEC/MSC, viability
Assay: Anticancer human tumor 941728-121-R-J1-PDC patient-derived lung adenocarcinoma cell line growth inhibition [KRAS2]
Conditions: for viability, T/C: stronger effect = lower value
Summary of the method: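 Combination screen of spheroid viability in tumor-cell co-cultures with endothelial (HUVEC) and mesenchymal stem cell stroma. Each agent was tested in half-log dilutions, topping at clinical Cmax or at 10 microM without a known Cmax.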

[1] = curve of first compound, second compound 0.1 µM
[2] = curve of first compound, second compound 0.316 µM
[3] = curve of first compound, second compound 1 µM
[4] = curve of first compound, second compound 3.16 µM
[5] = curve of first compound, second compound 10 µM
[6] = second compound 0.1 µM, first compound 0.0316 µM
[7] = second compound 0.1 µM, first compound 0.1 µM
[8] = second compound 0.1 µM, first compound 0.316 µM
[9] = second compound 0.1 µM, first compound 1 µM
[10] = second compound 0.1 µM, first compound 3.16 µM
[11] = second compound 0.1 µM, first compound 10 µM
[12] = second compound 0.316 µM, first compound 0.0316 µM
[13] = second compound 0.316 µM, first compound 0.1 µM
[14] = second compound 0.316 µM, first compound 0.316 µM
[15] = second compound 0.316 µM, first compound 1 µM
[16] = second compound 0.316 µM, first compound 3.16 µM
[17] = second compound 0.316 µM, first compound 10 µM
[18] = second compound 1 µM, first compound 0.0316 µM
[19] = second compound 1 µM, first compound 0.1 µM
[20] = second compound 1 µM, first compound 0.316 µM
[21] = second compound 1 µM, first compound 1 µM
[22] = second compound 1 µM, first compound 3.16 µM
[23] = second compound 1 µM, first compound 10 µM
[24] = second compound 3.16 µM, first compound 0.0316 µM
[25] = second compound 3.16 µM, first compound 0.1 µM
[26] = second compound 3.16 µM, first compound 0.316 µM
[27] = second compound 3.16 µM, first compound 1 µM
[28] = second compound 3.16 µM, first compound 3.16 µM
[29] = second compound 3.16 µM, first compound 10 µM
[30] = second compound 10 µM, first compound 0.0316 µM
[31] = second compound 10 µM, first compound 0.1 µM
[32] = second compound 10 µM, first compound 0.316 µM
[33] = second compound 10 µM, first compound 1 µM
[34] = second compound 10 µM, first compound 3.16 µM
[35] = second compound 10 µM, first compound 10 µM
[36] = second compound 0.1 µM, first compound 0.00316 µM
[37] = second compound 0.1 µM, first compound 0.01 µM
[38] = second compound 0.316 µM, first compound 0.00316 µM
[39] = second compound 0.316 µM, first compound 0.01 µM
[40] = second compound 1 µM, first compound 0.00316 µM
[41] = second compound 1 µM, first compound 0.01 µM
[42] = second compound 3.16 µM, first compound 0.00316 µM
[43] = second compound 3.16 µM, first compound 0.01 µM
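For IC50 in this document: spheroids exposed to agents for seven days before readout.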
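For viability, T/C in this document: spheroids exposed to agents for seven days before readout.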

## COc1cc2nccc(Oc3ccc(NC(=O)C4(C(=O)Nc5ccc(F)cc5)CC4)cc3)c2cc1OC + CNCc1ccccc1-c1csc(C(C)Nc2nc(C)nc3cc(OC)c(OC)cc23)c1
[1]
  IC50: 85.5 nM
[2]
  IC50: < 31.6 nM
[3]
  IC50: < 31.6 nM
[4]
  IC50: < 31.6 nM
[5]
  IC50: < 31.6 nM
[6]
  viability, T/C: 59.8%
[7]
  viability, T/C: 46.5%
[8]
  viability, T/C: 42.2%
[9]
  viability, T/C: 39.7%
[10]
  viability, T/C: 19.2%
[11]
  viability, T/C: 39.2%
[12]
  viability, T/C: 39%
[13]
  viability, T/C: 34.5%
[14]
  viability, T/C: 28.8%
[15]
  viability, T/C: 21.3%
[16]
  viability, T/C: 12.4%
[17]
  viability, T/C: 25.4%
[18]
  viability, T/C: 16.1%
[19]
  viability, T/C: 21%
[20]
  viability, T/C: 10.2%
[21]
  viability, T/C: 5.77%
[22]
  viability, T/C: 2.51%
[23]
  viability, T/C: 8.64%
[24]
  viability, T/C: 0.1%
[25]
  viability, T/C: 0.43%
[26]
  viability, T/C: 0.05%
[27]
  viability, T/C: 0.1%
[28]
  viability, T/C: 0.03%
[29]
  viability, T/C: 0.12%
[30]
  viability, T/C: 0.36%
[31]
  viability, T/C: 0.07%
[32]
  viability, T/C: 0.08%
[33]
  viability, T/C: 0.08%
[34]
  viability, T/C: 0.31%
[35]
  viability, T/C: 0.21%

## COc1cc2nccc(Oc3ccc(NC(=O)C4(C(=O)Nc5ccc(F)cc5)CC4)cc3)c2cc1OC
Compound 0.0316 µM
  viability, T/C: 97.7% [middle of 5 runs]
Compound 0.316 µM
  viability, T/C: 83.8% [middle of 5 runs]
Compound 10 µM
  outcome: inactive
Curve of compound
  IC50: > 10000 nM and 2760 nM

## Cn1nccc1Nc1nccc(-c2cc3c(s2)C(C)(C)N(CCN2CCOCC2)C3=O)n1 + CNCc1ccccc1-c1csc(C(C)Nc2nc(C)nc3cc(OC)c(OC)cc23)c1
[1]
  IC50: 81.2 nM
[2]
  IC50: < 31.6 nM
[3]
  IC50: < 31.6 nM
[4]
  IC50: < 31.6 nM
[5]
  IC50: < 31.6 nM
[6]
  viability, T/C: 70.3%
[7]
  viability, T/C: 46.4%
[8]
  viability, T/C: 37.4%
[9]
  viability, T/C: 37.9%
[10]
  viability, T/C: 36.8%
[11]
  viability, T/C: 40.7%
[12]
  viability, T/C: 40.3%
[13]
  viability, T/C: 37.9%
[14]
  viability, T/C: 34.8%
[15]
  viability, T/C: 32.3%
[16]
  viability, T/C: 31%
[17]
  viability, T/C: 29.6%
[18]
  viability, T/C: 35.6%
[19]
  viability, T/C: 30.3%
[20]
  viability, T/C: 31.6%
[21]
  viability, T/C: 21.3%
[22]
  viability, T/C: 11.4%
[23]
  viability, T/C: 13.1%
[24]
  viability, T/C: 1.11%
[25]
  viability, T/C: 2.35%
[26]
  viability, T/C: 1.61%
[27]
  viability, T/C: 0.99%
[28]
  viability, T/C: 1.35%
[29]
  viability, T/C: 0.25%
[30]
  viability, T/C: 0.56%
[31]
  viability, T/C: 0.88%
[32]
  viability, T/C: 0.44%
[33]
  viability, T/C: 0.77%
[34]
  viability, T/C: 0.11%
[35]
  viability, T/C: 0.35%

## CCN1CCN(Cc2ccc(Nc3ncc(F)c(-c4cc(F)c5nc(C)n(C(C)C)c5c4)n3)nc2)CC1 + C=CC(=O)N1CCN(c2nc(OCC3CCCN3C)nc3c2CCN(c2cccc4cccc(C)c24)C3)CC1CC#N
Curve of first compound, second compound 0.0316 µM
  IC50: < 3.16 nM
[1]
  IC50: < 3.16 nM
[2]
  IC50: < 3.16 nM
[3]
  IC50: < 3.16 nM
[4]
  IC50: < 3.16 nM
Second compound 0.0316 µM, first compound 0.00316 µM
  viability, T/C: 24.3%
Second compound 0.0316 µM, first compound 0.01 µM
  viability, T/C: 25.6%
Second compound 0.0316 µM, first compound 0.0316 µM
  viability, T/C: 23.5%
Second compound 0.0316 µM, first compound 0.1 µM
  viability, T/C: 25.4%
Second compound 0.0316 µM, first compound 0.316 µM
  viability, T/C: 26.3%
Second compound 0.0316 µM, first compound 1 µM
  viability, T/C: 26.9%
[36]
  viability, T/C: 20.9%
[37]
  viability, T/C: 21.3%
[6]
  viability, T/C: 18.9%
[7]
  viability, T/C: 20.8%
[8]
  viability, T/C: 18.1%
[9]
  viability, T/C: 23.5%
[38]
  viability, T/C: 21%
[39]
  viability, T/C: 21.2%
[12]
  viability, T/C: 19.1%
[13]
  viability, T/C: 20.2%
[14]
  viability, T/C: 21.1%
[15]
  viability, T/C: 21.6%
[40]
  viability, T/C: 21.3%
[41]
  viability, T/C: 21.4%
[18]
  viability, T/C: 20.1%
[19]
  viability, T/C: 18.4%
[20]
  viability, T/C: 19.4%
[21]
  viability, T/C: 20%
[42]
  viability, T/C: 1.17%
[43]
  viability, T/C: 1.06%
[24]
  viability, T/C: 0.49%
[25]
  viability, T/C: 0.73%
[26]
  viability, T/C: 0.52%
[27]
  viability, T/C: 0.18%

## CC(C)n1nc(-c2ccc3oc(N)nc3c2)c2c(N)ncnc21
Compound 0.000316 µM
  viability, T/C: 90% [middle of 5 runs]

## CC(C)NCC(C(=O)N1CCN(c2ncnc3c2C(C)CC3O)CC1)c1ccc(Cl)cc1 (stereo not given) + COc1cc2nc(C)nc(NC(C)c3cc(N)cc(C(F)(F)F)c3)c2cc1OC1CCOC1
[1]
  IC50: 32.7 nM
[2]
  IC50: < 31.6 nM
[3]
  IC50: < 31.6 nM
[4]
  IC50: < 31.6 nM
[5]
  IC50: < 31.6 nM
[6]
  viability, T/C: 49.7%
[7]
  viability, T/C: 46.5%
[8]
  viability, T/C: 34.1%
[9]
  viability, T/C: 23.4%
[10]
  viability, T/C: 11.8%
[11]
  viability, T/C: 8.21%
[12]
  viability, T/C: 44%
[13]
  viability, T/C: 41.4%
[14]
  viability, T/C: 32.5%
[15]
  viability, T/C: 21.5%
[16]
  viability, T/C: 10.3%
[17]
  viability, T/C: 11.1%
[18]
  viability, T/C: 40.4%
[19]
  viability, T/C: 34.8%
[20]
  viability, T/C: 29.7%
[21]
  viability, T/C: 23.1%
[22]
  viability, T/C: 10.3%
[23]
  viability, T/C: 1.68%
[24]
  viability, T/C: 35.1%
[25]
  viability, T/C: 35.2%
[26]
  viability, T/C: 36.7%
[27]
  viability, T/C: 13%
[28]
  viability, T/C: 5.96%
[29]
  viability, T/C: 5.42%
[30]
  viability, T/C: 13.4%
[31]
  viability, T/C: 9.39%
[32]
  viability, T/C: 3.04%
[33]
  viability, T/C: 1.04%
[34]
  viability, T/C: 0.52%
[35]
  viability, T/C: 0.66%

## CC(C)n1nc(-c2ccc3oc(N)nc3c2)c2c(N)ncnc21 + CNCc1ccccc1-c1csc(C(C)Nc2nc(C)nc3cc(OC)c(OC)cc23)c1
[1]
  IC50: 0.668 nM
[2]
  IC50: < 0.316 nM
[3]
  IC50: < 0.316 nM
[4]
  IC50: < 0.316 nM
[5]
  IC50: < 0.316 nM
Second compound 0.1 µM, first compound 0.000316 µM
  viability, T/C: 49%
Second compound 0.1 µM, first compound 0.001 µM
  viability, T/C: 59.2%
[36]
  viability, T/C: 37.3%
[37]
  viability, T/C: 34.3%
[6]
  viability, T/C: 34.5%
[7]
  viability, T/C: 31.4%
Second compound 0.316 µM, first compound 0.000316 µM
  viability, T/C: 44.7%
Second compound 0.316 µM, first compound 0.001 µM
  viability, T/C: 45.2%
[38]
  viability, T/C: 35.9%
[39]
  viability, T/C: 23.1%
[12]
  viability, T/C: 24.1%
[13]
  viability, T/C: 16.6%
Second compound 1 µM, first compound 0.000316 µM
  viability, T/C: 34.8%
Second compound 1 µM, first compound 0.001 µM
  viability, T/C: 29.3%
[40]
  viability, T/C: 15.9%
[41]
  viability, T/C: 13.6%
[18]
  viability, T/C: 11%
[19]
  viability, T/C: 7.65%
Second compound 3.16 µM, first compound 0.000316 µM
  viability, T/C: 0.15%
Second compound 3.16 µM, first compound 0.001 µM
  viability, T/C: 0.16%
[42]
  viability, T/C: 0.1%
[43]
  viability, T/C: 0.11%
[24]
  viability, T/C: 0.08%
[25]
  viability, T/C: 0.13%
Second compound 10 µM, first compound 0.000316 µM
  viability, T/C: 0.58%
Second compound 10 µM, first compound 0.001 µM
  viability, T/C: 0.43%
Second compound 10 µM, first compound 0.00316 µM
  viability, T/C: 2.78%
Second compound 10 µM, first compound 0.01 µM
  viability, T/C: 0.67%
[30]
  viability, T/C: 0.67%
[31]
  viability, T/C: 0.72%
